# According to publication PMC6751662, “Pharmacological and functional similarities of the human neuropeptide Y system in C. elegans challenges phylogenetic views on the FLP/NPR system” (Cell Communication and Signaling : CCS, 2019):
# Ends that are not written are not given here.
# Key:
# NPFF1R = molecular target: T1, NPFF1R (Homo sapiens, UniProt Q9GZQ6); assay: IP accumulation assay, chimeric GαΔ6qi4myr, NPFF1R; assay type: cell-based; conditions: chimeric GαΔ6qi4myr co-transfected, transiently transfected HEK293 cells, mean of at least three independent experiments
# T1 construct: expressed in transfected cells; host or cells: HEK293, transient
# T1 sequence (Q9GZQ6 whole entry): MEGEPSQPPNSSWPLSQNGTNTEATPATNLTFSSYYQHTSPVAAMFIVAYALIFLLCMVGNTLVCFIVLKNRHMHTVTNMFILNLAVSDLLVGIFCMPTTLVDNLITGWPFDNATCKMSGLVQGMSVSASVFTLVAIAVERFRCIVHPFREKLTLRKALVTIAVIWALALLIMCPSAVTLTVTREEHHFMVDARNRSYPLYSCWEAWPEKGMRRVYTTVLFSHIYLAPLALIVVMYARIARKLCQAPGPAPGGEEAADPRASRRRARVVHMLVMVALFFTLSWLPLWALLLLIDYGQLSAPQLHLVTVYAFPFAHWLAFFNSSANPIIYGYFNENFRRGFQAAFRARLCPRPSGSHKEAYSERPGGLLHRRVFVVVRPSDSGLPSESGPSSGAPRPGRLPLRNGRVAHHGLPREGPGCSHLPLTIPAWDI
# Procedure: (§1) For measuring IP accumulation, HEK293 cells grown to 70–80% confluency in 6-well plates were transiently co-transfected using Metafectene Pro (2.5 μl/μg DNA; Biontex) with plasmids containing receptor and/or mock (empty pcDNA3.1) (for endogenous Gq-coupling) using 4 μg total DNA in a ratio of 3:1 following the manufacturer’s instructions. For testing Gα16- and GαΔ6qi4myr-coupling, plasmids encoding the corresponding Gα protein were co-transfected instead of mock. Gα16 is naturally promiscuous and stimulates the phospholipase C (PLC) pathway leading to IP production, while the exchange of the C-terminal four amino acids of Gαq for the corresponding residues of Gαi1 in the chimeric GαΔ6qi4myr confers the ability to couple to Gi/o protein-preferring receptors but still stimulate PLC, thus specifically redirecting downstream cellular signaling. 16 h post transfection, the cells were seeded into white 384-well plates at a density of 20,000 cells/well. Media was removed 24 h later and the cells were incubated with the indicated concentration of peptides for 1 h in HBSS + 20 mM LiCl. IP accumulation was measured with the HTRF-based IP-One Gq kit (Cisbio) on a microplate reader (Tecan Spark).
# (§2) For in vitro activation, data is presented as mean ± SEM of at least three independent experiments conducted in technical triplicate. […] For the C. elegans NPRs, we considered the strongest response elicited by any of the peptides downstream of a particular receptor as the receptor’s maximal signal. This may or may not be the biological maximum that can be reached by the ‘true’ endogenous agonist. For the human receptors, the response to the established endogenous agonist reflected the maximal signal.
# Y5R = molecular target: T2, Y5R (Homo sapiens, UniProt Q15761); assay: IP accumulation assay, chimeric GαΔ6qi4myr, Y5R; assay type: cell-based; conditions: chimeric GαΔ6qi4myr co-transfected, transiently transfected HEK293 cells, mean of at least three independent experiments
# T2 construct: expressed in transfected cells; host or cells: HEK293, transient
# T2 sequence (Q15761 1-445): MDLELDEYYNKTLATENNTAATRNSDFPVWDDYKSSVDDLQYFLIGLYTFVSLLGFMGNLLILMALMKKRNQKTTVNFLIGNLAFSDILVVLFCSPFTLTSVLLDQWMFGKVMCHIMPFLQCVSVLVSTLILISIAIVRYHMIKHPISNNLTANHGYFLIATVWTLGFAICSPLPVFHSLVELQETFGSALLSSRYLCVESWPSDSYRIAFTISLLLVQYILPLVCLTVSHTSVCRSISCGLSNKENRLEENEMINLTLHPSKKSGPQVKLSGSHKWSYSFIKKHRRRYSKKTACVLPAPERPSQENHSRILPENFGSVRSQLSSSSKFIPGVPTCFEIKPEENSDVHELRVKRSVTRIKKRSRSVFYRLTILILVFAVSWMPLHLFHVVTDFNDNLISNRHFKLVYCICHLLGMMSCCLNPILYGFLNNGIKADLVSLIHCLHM
# Procedure: as §1, §2
# Y2R = molecular target: T3, Y2R (Homo sapiens, UniProt P49146); assay: IP accumulation assay, chimeric GαΔ6qi4myr, Y2R; assay type: cell-based; conditions: chimeric GαΔ6qi4myr co-transfected, transiently transfected HEK293 cells, mean of at least three independent experiments
# T3 construct: expressed in transfected cells; host or cells: HEK293, transient
# T3 sequence (P49146 1-381): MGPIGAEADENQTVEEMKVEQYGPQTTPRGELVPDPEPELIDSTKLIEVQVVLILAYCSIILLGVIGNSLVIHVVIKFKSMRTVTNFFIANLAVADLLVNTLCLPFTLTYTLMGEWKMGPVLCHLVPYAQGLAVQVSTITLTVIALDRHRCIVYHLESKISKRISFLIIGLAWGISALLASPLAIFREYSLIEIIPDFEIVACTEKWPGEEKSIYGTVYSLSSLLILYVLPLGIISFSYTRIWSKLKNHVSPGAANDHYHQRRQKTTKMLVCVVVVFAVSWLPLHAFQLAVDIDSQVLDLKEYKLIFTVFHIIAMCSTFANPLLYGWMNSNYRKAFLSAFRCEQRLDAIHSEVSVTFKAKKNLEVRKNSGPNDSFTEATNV
# Procedure: as §1, §2
# NPFF2R = molecular target: T4, NPFF2R (Homo sapiens, UniProt Q9Y5X5); assay: IP accumulation assay, chimeric GαΔ6qi4myr, NPFF2R; assay type: cell-based; conditions: chimeric GαΔ6qi4myr co-transfected, transiently transfected HEK293 cells, mean of at least three independent experiments
# T4 construct: expressed in transfected cells; host or cells: HEK293, transient
# T4 sequence (Q9Y5X5 103-522): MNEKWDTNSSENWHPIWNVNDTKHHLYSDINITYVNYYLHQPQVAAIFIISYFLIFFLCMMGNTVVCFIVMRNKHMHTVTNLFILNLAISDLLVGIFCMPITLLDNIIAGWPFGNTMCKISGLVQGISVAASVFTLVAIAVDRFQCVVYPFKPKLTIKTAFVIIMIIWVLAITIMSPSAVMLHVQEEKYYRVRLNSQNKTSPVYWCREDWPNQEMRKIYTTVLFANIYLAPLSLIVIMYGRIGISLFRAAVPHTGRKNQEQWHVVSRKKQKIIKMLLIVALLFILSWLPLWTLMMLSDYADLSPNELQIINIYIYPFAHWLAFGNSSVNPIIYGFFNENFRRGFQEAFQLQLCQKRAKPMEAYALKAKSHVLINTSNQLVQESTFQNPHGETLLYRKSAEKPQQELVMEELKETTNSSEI
# Procedure: as §1, §2
# Y4R = molecular target: T5, Y4R (Homo sapiens, UniProt P50391); assay: IP accumulation assay, chimeric GαΔ6qi4myr, Y4R; assay type: cell-based; conditions: chimeric GαΔ6qi4myr co-transfected, transiently transfected HEK293 cells, mean of at least three independent experiments
# T5 construct: expressed in transfected cells; host or cells: HEK293, transient
# T5 sequence (P50391 whole entry): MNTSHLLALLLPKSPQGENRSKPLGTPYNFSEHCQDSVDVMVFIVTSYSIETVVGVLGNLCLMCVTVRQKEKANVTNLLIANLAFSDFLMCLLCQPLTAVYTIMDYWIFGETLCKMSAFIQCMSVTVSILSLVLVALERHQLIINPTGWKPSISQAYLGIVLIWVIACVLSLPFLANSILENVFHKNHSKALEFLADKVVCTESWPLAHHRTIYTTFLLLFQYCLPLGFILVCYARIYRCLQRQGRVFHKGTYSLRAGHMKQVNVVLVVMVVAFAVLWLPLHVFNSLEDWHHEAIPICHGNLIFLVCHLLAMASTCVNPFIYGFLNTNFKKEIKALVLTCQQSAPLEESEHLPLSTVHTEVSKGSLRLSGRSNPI
# Procedure: as §1, §2
# [1] = Solubility of crude peptides in RP-HPLC purification solvents; assay type: physicochemical; conditions: for solubility of crude peptide at basic pH: 10 mM (NH4)2CO3, pH 8.5, used for purification; for solubility of crude peptide: H2O + 0.1% TFA / acetonitrile + 0.08% TFA (RP-HPLC purification conditions)
# Procedure: C-terminally amidated peptides were synthesized in 15 μmol scale by solid-phase peptide synthesis following the Fmoc/tert-butyl strategy (reviewed in [18]) on Rink amide resin using an automated Syro II peptide synthesizer (MultiSynTech). Automated coupling reactions were performed as double couplings using 8 eq Nα-protected amino acid, activated in situ with equimolar amounts of Oxyma and […] in dimethylformamide (DMF) for 30 min. Automated Fmoc deprotection was carried out with 40% (v/v) piperidine in DMF for 3 min and 20% (v/v) piperidine in DMF for 10 min. Reactive side chains of amino acids were protected by tert-butyl (tBu for Tyr, Ser, Asp, Glu, Thr), trityl (Trt for Asn, Gln, His), 2,2,4,6,7-pentamethyldihydrobenzofuran-5-sulfonyl (Pbf for Arg) and tert-butyloxycarbonyl (Boc for Lys). Peptides were cleaved off the resin using trifluoroacetic acid (TFA)/H2O/triisopropylsilane (90/5/5, v/v/v) for 2.5 h at room temperature and precipitated in ice cold diethyl ether. All peptides were purified to > 95% purity by RP-HPLC (Shimadzu) using a Phenomenex Jupiter 10 μm Proteo 90 Å (C12) column. For most peptides, linear gradients of H2O + 0.1% trifluoroacetic acid (TFA) (eluent A) and acetonitrile (ACN) + 0.08% TFA (eluent B) were applied at a flow rate of 10 ml/minute. […] FLP-27, FLP-33, and FLP-34 were solubilized by ultrasonication at 50 °C for 10 min and subsequently purified under standard solvent conditions used pre-heated HPLC systems. […] Peptide identity was verified by matrix-assisted laser desorption/time of flight (MALDI-ToF; Ultraflex III MALDI-ToF/ToF, Bruker Daltonics) mass spectrometry, and peptide purity was evaluated with analytical RP-HPLC.
Substance,"IP accumulation, x-fold of basal (mean), NPFF1R (NPFF1R; 0.1 µM peptide)","IP accumulation, x-fold of basal (mean), NPFF1R (NPFF1R; 10 µM peptide)","IP accumulation, x-fold of basal (mean), Y5R (Y5R; 0.1 µM peptide)","IP accumulation, x-fold of basal (mean), Y5R (Y5R; 10 µM peptide)","IP accumulation, x-fold of basal (mean), Y2R (Y2R; 0.1 µM peptide)","IP accumulation, x-fold of basal (mean), Y2R (Y2R; 10 µM peptide)","IP accumulation, x-fold of basal (mean), NPFF2R (NPFF2R; 0.1 µM peptide)","IP accumulation, x-fold of basal (mean), NPFF2R (NPFF2R; 10 µM peptide)","IP accumulation, x-fold of basal (mean), Y4R (Y4R; 0.1 µM peptide)","IP accumulation, x-fold of basal (mean), Y4R (Y4R; 10 µM peptide)",solubility of crude peptide at basic pH [1],solubility of crude peptide [1]
"ASPSFIRF-NH2 [FLP-4-2, C. elegans FMRFamide-like peptide, C-terminally amidated, synthesized by SPPS]",1.86 x-fold of basal,3.68 x-fold of basal,1.14 x-fold of basal,1.29 x-fold of basal,0.76 x-fold of basal,2.05 x-fold of basal,1.07 x-fold of basal,2.36 x-fold of basal,1.45 x-fold of basal,1.04 x-fold of basal,,
"AGSDPNFLRF-NH2 [FLP-1-2, C. elegans FMRFamide-like peptide, C-terminally amidated, synthesized by SPPS]",2.11 x-fold of basal,3.54 x-fold of basal,1.33 x-fold of basal,1.17 x-fold of basal,2.81 x-fold of basal,1.41 x-fold of basal,1.10 x-fold of basal,2.86 x-fold of basal,1.28 x-fold of basal,1.45 x-fold of basal,,
SEVPGVLRF-NH2 [FLP-18-5],,,,,,,,,,,improved solubility at basic pH,partly insoluble
"TSGPLGNLAEELNGYSRKKGGFSFRF-NH2 [QRFP26, human pyroglutamylated RFamide peptide, 26 residues, reference compound]",1.04 x-fold of basal,2.56 x-fold of basal,0.87 x-fold of basal,3.57 x-fold of basal,1.30 x-fold of basal,10.62 x-fold of basal,1.85 x-fold of basal,2.58 x-fold of basal,1.03 x-fold of basal,1.42 x-fold of basal,,
RGPSGPLRF-NH2 [FLP-15-2],,,,,,,,,,,improved solubility at basic pH,partly insoluble
"EASAFGDIIGELKGKGLGGRMRF-NH2 [FLP-27, NPY-like C. elegans FLP with C-terminal RxRF/Ya signature]",,,,,,,,,,,,partly insoluble
PrRP31 [reference compound],0.87 x-fold of basal,2.26 x-fold of basal,0.70 x-fold of basal,9.64 x-fold of basal,0.76 x-fold of basal,5.57 x-fold of basal,1.83 x-fold of basal,2.28 x-fold of basal,0.84 x-fold of basal,1.10 x-fold of basal,,
"APLEPVYPGDNATPEQMAQYAADLRRYINMLTRPRY-NH2 [PP, human pancreatic polypeptide, reference compound]",0.75 x-fold of basal,0.75 x-fold of basal,16.39 x-fold of basal,17.90 x-fold of basal,3.40 x-fold of basal,12.24 x-fold of basal,0.95 x-fold of basal,1.44 x-fold of basal,4.73 x-fold of basal,4.61 x-fold of basal,,
GLGPRPLRF-NH2 [FLP-21],,,,,,,,,,,improved solubility at basic pH,partly insoluble
"TPDINPAWYASRGIRPVGRF-NH2 [PrRP20, human prolactin-releasing peptide, 20 residues, reference compound]",0.94 x-fold of basal,2.37 x-fold of basal,1.01 x-fold of basal,5.90 x-fold of basal,0.81 x-fold of basal,5.05 x-fold of basal,1.75 x-fold of basal,2.32 x-fold of basal,0.80 x-fold of basal,0.89 x-fold of basal,,
"APKPKFIRF-NH2 [FLP-5-1, C. elegans FMRFamide-like peptide, C-terminally amidated, synthesized by SPPS]",1.48 x-fold of basal,4.07 x-fold of basal,0.80 x-fold of basal,5.88 x-fold of basal,0.88 x-fold of basal,4.08 x-fold of basal,0.88 x-fold of basal,2.44 x-fold of basal,1.38 x-fold of basal,1.28 x-fold of basal,,
"APLEGFEDMSGFLRTIDGIQKPRF-NH2 [FLP-33, NPY-like C. elegans FLP with C-terminal RxRF/Ya signature]",,,,,,,,,,,,partly insoluble
